Source: patent publication US11427588B2, “Compositions and methods for treating neurodegenerative diseases and cardiomyopathy” (THE REGENTS OF THE UNIVERSITY OF CALIFORNIA, priority 2013, dated 2022)

Assays:
rat hippocampal neurons = experiment: Mitochondrial motility assay in axons; format: cell-based; conditions: 50 μM, 48 hours pre-treatment
Text: (§1) Mitochondrial motility assay: Primary hippocampal neuronal cultures were co-transfected with mitochondrial targeted GFP (mitoGFP) and mCherry-tagged synaptophysin (mCherrySynaptophysin) to allow for the live identification of mitochondria in axons.
(§2) To test if kinetin decreases motility we examined the mobility of axonal mitochondria in hippocampal neurons. Primary hippocampal neuronal cultures were co-transfected with mitoGFP and mCherry-tagged Synaptophysin (mCherrySynaptophysin) to allow for the live identification of mitochondria in axons. […] To test the PINK1 dependency of this process, we treated control mouse C57 (PINK1 wildtype) and PINK1 knockout derived hippocampal neurons with kinetin or 9MK and imaged their mitochondria.

[1] = test system: PINK1 knockout derived hippocampal neurons; experiment: Mitochondrial motility assay in axons; format: cell-based, mouse
Text: as §1, §2

HeLa cells = experiment: Parkin recruitment to depolarized mitochondria in HeLa cells, PINK1 form not stated; format: cell-based
Procedure: Parkin phosphorylation and mitochondrial translocation assay: HeLa cells were grown in DMEM supplemented with 10% FBS. Log phase cells were plated in 24 well plates with glass coverslips (Mattek) pretreated with fibronectin. Cells were pretreated with 50 μM of the indicated compound, followed by transfection with MitoGFP, mCherry Parkin, and full length PINK1FLAG3 in a 1:4:2 ratio using Fugene 6 (Promega). Fields of cells were selected by expression of MitoGFP (6 fields/well-3 wells/condition) and imaged at five-minute intervals following depolarization with 5 μM CCCP. Quantification was performed according to published protocols^3 and by creation of a Matlab based script.
Our ability to enhance PINK1 activity in-vitro using KTP led us to investigate means by which to achieve enhanced activity in cells expressing PINK1. […] We treated cells with either kinetin or adenine (FIG. 2A) and measured Parkin localization following mitochondrial depolarization with CCCP (FIG. 2B). HeLa cells, which have low levels of endogenous PINK1 and PARKIN, were transfected with wildtype or PINK1^G309D, mCherryParkin, and mitoGFP. After 48 hours of incubation with 25 μM adenine, kinetin or equivalent DMSO, we imaged CCCP-mediated depolarization of mitochondria (FIGS. 2C, 2D) and calculated the percentage of GFP labelled mitochondria with mCherryParkin associated (FIG. 2E). […]

PINK1^wt = PINK1^wt (Homo sapiens, UniProt Q9BXM7); experiment: PINK1 kinase assay with ATP analogs (autophosphorylation, TRAP1 transphosphorylation); format: biochemical, H. sapiens; set-up: kinase domain with c-terminal extension (PINK1, residues 148-581) with a C-terminal FLAG3 tag; made in house; host or cells: baculovirus / Sf21 insect cells; conditions: for utilization to phosphorylate TRAP1: SF21 expressed PINK1; for transphosphorylation of TRAP1, activity versus ATP: GST tagged kinase domain 156-496 expressed in E. coli
Text: (§3) We expressed both PINK1^wt and PINK1^G309D GST tagged kinase domain (156-496PINK1) in E. coli and performed kinase assays with a series of ATP analogs.
(§4) Expression, purification and enzymatic characterization of PINK1: H. sapiens PINK1 kinase domain (PINK1, residues 156-496) with an N-terminal GST tag was expressed using a pGEX vector using standard techniques. H. sapiens PINK1 kinase domain with c-terminal extension (PINK1, residues 148-581) with a C-terminal FLAG3 tag was co-expressed with full length TRAP1 baculovirus/Sf21 insect cell system. […] The reaction was performed using 50 mM Tris-HCl, 150 mM NaCl, 10 mM MgCl2, 3 mM MnCl2, 0.5 mM DTT and 1 mg/ml substrate if indicated.
(§5) We constructed several FLAG3 tagged truncation variants of PINK1 and induced expression using baculovirus infected SF21 insect cells.
(§6) We expressed GST tagged kinase domain (PINK11156-496) in E. coli and performed a kinase assay.

PINK1^G309D = PINK1^G309D (Homo sapiens, UniProt Q9BXM7, G309D); experiment: as above; format: biochemical, H. sapiens; set-up: kinase domain with c-terminal extension (PINK1, residues 148-581) with a C-terminal FLAG3 tag; made in house; host or cells: baculovirus / Sf21 insect cells; conditions: GST tagged kinase domain 156-496 expressed in E. coli
Text: as §3, §4, §5, §6

[2] = substrate: Nc1ncnc2c1ncn2[C@@H]1O[C@H](COP(=O)(O)OP(=O)(O)OP(=O)(O)O)[C@@H](O)[C@H]1O; experiment: purified protein, by the assay type; format: biochemical, H. sapiens; conditions: other: catalytic constants for PINK1, nucleotide as substrate, autophosphorylation, SF21 expressed PINK1 148-581
[3] = catalytic constants for PINK1, nucleotide as substrate, autophosphorylation, SF21 expressed PINK1 148-581

Chain of PINK1^G309D (Q9BXM7 148-581 G309D): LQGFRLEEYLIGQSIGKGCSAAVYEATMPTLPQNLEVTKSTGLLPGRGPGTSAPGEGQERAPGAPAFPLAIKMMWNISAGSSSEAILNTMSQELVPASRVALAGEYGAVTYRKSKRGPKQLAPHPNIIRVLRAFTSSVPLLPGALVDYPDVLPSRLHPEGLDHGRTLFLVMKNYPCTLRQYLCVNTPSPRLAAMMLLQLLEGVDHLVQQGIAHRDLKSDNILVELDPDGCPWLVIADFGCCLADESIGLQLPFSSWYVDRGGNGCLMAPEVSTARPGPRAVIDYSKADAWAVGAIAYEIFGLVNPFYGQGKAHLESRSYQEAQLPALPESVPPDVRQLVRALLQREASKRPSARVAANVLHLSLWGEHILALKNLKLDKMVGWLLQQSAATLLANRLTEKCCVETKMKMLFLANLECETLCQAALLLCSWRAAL

How did the “mitochondrial movement / motility” value (rat hippocampal neurons) turn out when `Cn1cnc2c(NCc3ccco3)ncnc21` [9-methyl-Kinetin, reference compound] was run?
The value was “did not affect mitochondrial motility”.

And the mitochondrial motility [1]?
The mitochondrial motility was “no change in motility”.

Which “Parkin recruitment to CCCP depolarized mitochondria” value (HeLa cells) does the source give for `c1ccc(CNc2ncnc3nc[nH]c23)cc1` [N6 benzyl adenine, reference compound] here?
Its value is “less active than kinetin”.

`O=P(O)(O)OP(=O)(O)OP(=O)(O)OC[C@H]1O[C@@H](n2cnc3c(NCc4ccccc4)ncnc32)[C@H](O)[C@@H]1O` [N^6 Benzyl, N^6 Benzyl ATP, reference compound] was tested. Which “utilization to phosphorylate TRAP1” value (PINK1^wt) did it give?
The value was “not”.

`O=P(O)(O)OP(=O)(O)OP(=O)(O)OC[C@H]1O[C@@H](n2cnc3c(NCCc4ccccc4)ncnc32)[C@H](O)[C@@H]1O` [N^6 Phenethyl ATP, reference compound] was tested. Which “utilization to phosphorylate TRAP1” value (PINK1^wt) did it give?
The value was “not”.

How did the autophosphorylation (PINK1^G309D) turn out when N^6 furfuryl ATP [KTP] was run?
The autophosphorylation was “increased levels of autophosphorylation”.

What about the “transphosphorylation of TRAP1, activity versus ATP” value (PINK1^G309D) of the same molecule?
Its value is “amplified”.

What about the “transphosphorylation of TRAP1, activity versus ATP” value (PINK1^G309D; listed as N^6 FF ATP) of the same molecule?
The value was “increased catalytic rate than ATP”.

What about the “PINK1 activity stimulation versus other N6 substituted ATP analogs” value (PINK1^wt; FIG. 12) of the same molecule?
The value was “stimulated”.

And the “transphosphorylation of TRAP1, activity versus ATP” value (PINK1^wt)?
The value was “amplified”.

What about the “transphosphorylation of TRAP1, activity versus ATP” value (PINK1^wt; listed as N^6 FF ATP) of the same molecule?
Its value is “more efficiently than ATP”.

What about the “fold higher Vmax versus ATP” value (PINK1^wt; PINK1 autophosphorylation) of the same molecule?
Its value is 1.84 fold.

What about the “utilization to phosphorylate TRAP1” value (PINK1^wt) of the same molecule?
Its value is “utilizes”.

And the Km (PINK1^wt; [3])?
Its Km is 51.7 µM.

And the Vmax (PINK1^wt; [3])?
Its Vmax is 0.0098 ± 0.002 min⁻¹.

B1: PINK1^wt (Homo sapiens) (protein)
chain: LQGFRLEEYLIGQSIGKGCSAAVYEATMPTLPQNLEVTKSTGLLPGRGPGTSAPGEGQERAPGAPAFPLAIKMMWNISAGSSSEAILNTMSQELVPASRVALAGEYGAVTYRKSKRGPKQLAPHPNIIRVLRAFTSSVPLLPGALVDYPDVLPSRLHPEGLGHGRTLFLVMKNYPCTLRQYLCVNTPSPRLAAMMLLQLLEGVDHLVQQGIAHRDLKSDNILVELDPDGCPWLVIADFGCCLADESIGLQLPFSSWYVDRGGNGCLMAPEVSTARPGPRAVIDYSKADAWAVGAIAYEIFGLVNPFYGQGKAHLESRSYQEAQLPALPESVPPDVRQLVRALLQREASKRPSARVAANVLHLSLWGEHILALKNLKLDKMVGWLLQQSAATLLANRLTEKCCVETKMKMLFLANLECETLCQAALLLCSWRAAL
notes: kinase domain with c-terminal extension (PINK1, residues 148-581) with a C-terminal FLAG3 tag; made in house; host or cells: baculovirus / Sf21 insect cells
With B1 as the molecule, how does the Km [2] read?
Its Km is 18.4 µM.

And the kcat [2]?
The kcat was 8.83e-05 ± 1.7e-05 s⁻¹.
